Reference: ChEMBL document CHEMBL1201862, “PubChem BioAssay data set” (2004)
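Five concentrations, 48 hours, 96-well plates. GI50: concentration for 50% inhibition of growth.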 Calls of active or inactive are those of the source. Cut-off read from the data, not from the text of the source: active = GI50 up to about 1.1 µM and inactive = higher.

Experiments:
Test in all cases: inhibition of tumour cell growth, NCI panel, 48 h
SN12C = system: SN12C
HCT-15 = system: HCT-15
UO-31 = system: UO-31
786-0 = system: 786-0
RXF 393 = system: RXF 393
IGROV-1 = system: IGROV-1
CCRF-CEM = system: CCRF-CEM
Hs-578T = system: Hs-578T
HOP-92 = system: HOP-92
KM12 = system: KM12
SR = system: SR
A549 = system: A549
NCI-H23 = system: NCI-H23
COLO 205 = system: COLO 205
OVCAR-5 = system: OVCAR-5
TK-10 = system: TK-10
HT-29 = system: HT-29
SK-MEL-28 = system: SK-MEL-28
T47D = system: T47D
Malme-3M = system: Malme-3M
NCI-H522 = system: NCI-H522
SNB-75 = system: SNB-75
HL-60 = system: HL-60
DU-145 = system: DU-145
EKVX = system: EKVX
A498 = system: A498
PC-3 = system: PC-3
OVCAR-4 = system: OVCAR-4
SW-620 = system: SW-620
SNB-19 = system: SNB-19
RPMI-8226 = system: RPMI-8226
MDA-MB-231 = system: MDA-MB-231
M14 = system: M14
MOLT-4 = system: MOLT-4
SF-268 = system: SF-268
HOP-62 = system: HOP-62
LOX IMVI = system: LOX IMVI
MDA-N = system: MDA-N
NCI-H226 = system: NCI-H226
K562 = system: K562
SK-MEL-2 = system: SK-MEL-2
OVCAR-3 = system: OVCAR-3
UACC-62 = system: UACC-62
OVCAR-8 = system: OVCAR-8
UACC-257 = system: UACC-257
U-251 = system: U-251
HCT-116 = system: HCT-116
ACHN = system: ACHN
CAKI-1 = system: CAKI-1
NCI-H460 = system: NCI-H460
SK-MEL-5 = system: SK-MEL-5
NCI/ADR-RES = system: NCI/ADR-RES
SF-295 = system: SF-295
SF-539 = system: SF-539
MCF7 = system: MCF7
MDA-MB-435 = system: MDA-MB-435
BT-549 = system: BT-549
HCC 2998 = system: HCC 2998
SK-OV-3 = system: SK-OV-3

Measured: GI50

CCOC(=O)C(NC(=O)c1ccccc1)(Nc1ccc(S(=O)(=O)Nc2cc(C)nc(C)n2)cc1)C(F)(F)F (centres undefined)
inactive: SN12C > 100 µM | UO-31 > 100 µM | 786-0 > 100 µM | RXF 393 > 100 µM | IGROV-1 > 100 µM | CCRF-CEM > 100 µM | Hs-578T > 100 µM | HOP-92 > 100 µM | KM12 > 100 µM | SR > 100 µM | A549 > 100 µM | NCI-H23 > 100 µM | COLO 205 > 100 µM | OVCAR-5 > 100 µM | TK-10 > 100 µM | HT-29 > 100 µM | SK-MEL-28 > 100 µM | T47D > 100 µM | Malme-3M > 100 µM | NCI-H522 > 100 µM | SNB-75 > 100 µM | HL-60 > 100 µM | DU-145 > 100 µM | EKVX > 100 µM | A498 14.7 µM | PC-3 > 100 µM | OVCAR-4 > 100 µM | SW-620 56.1 µM | SNB-19 > 100 µM | RPMI-8226 > 100 µM | MDA-MB-231 > 100 µM | M14 > 100 µM | MOLT-4 > 100 µM | SF-268 > 100 µM | HOP-62 > 100 µM | LOX IMVI > 100 µM | MDA-N > 100 µM | NCI-H226 > 100 µM | K562 > 100 µM | SK-MEL-2 > 100 µM | OVCAR-3 > 100 µM | UACC-62 > 100 µM | OVCAR-8 > 100 µM | UACC-257 > 100 µM | U-251 > 100 µM | HCT-116 > 100 µM | ACHN > 100 µM | CAKI-1 > 100 µM | NCI-H460 > 100 µM | SK-MEL-5 > 100 µM | NCI/ADR-RES > 100 µM | SF-295 > 100 µM | SF-539 > 100 µM | MCF7 > 100 µM | MDA-MB-435 > 100 µM
> 100 µM: HCT-15

CNCCCn1c2ccccc2c2c3c(c(-c4ccsc4)cc21)C(=O)NC3=O
active: UO-31 0.286 µM | 786-0 0.259 µM | RXF 393 0.0112 µM | IGROV-1 1.09 µM | CCRF-CEM 0.216 µM | KM12 0.0174 µM | SR < 0.01 µM | NCI-H23 0.0822 µM | HT-29 0.824 µM | Malme-3M 0.163 µM | DU-145 0.179 µM | A498 < 0.0104 µM | PC-3 0.178 µM | M14 0.0408 µM | HOP-62 1.02 µM | SK-MEL-2 0.0181 µM | OVCAR-8 0.281 µM | ACHN < 0.0192 µM | CAKI-1 0.519 µM | SK-MEL-5 0.735 µM | NCI/ADR-RES 0.71 µM | SF-295 0.0953 µM | SF-539 0.0281 µM | MCF7 0.0984 µM | MDA-MB-435 1.12 µM
inactive: SN12C 1.29 µM | Hs-578T 1.85 µM | A549 1.17 µM | BT-549 2.1 µM | COLO 205 1.39 µM | OVCAR-5 1.5 µM | TK-10 1.35 µM | SK-MEL-28 1.78 µM | T47D 2.09 µM | NCI-H522 1.66 µM | SNB-75 1.91 µM | HL-60 2.22 µM | HCC 2998 2.67 µM | EKVX 1.85 µM | OVCAR-4 1.59 µM | SW-620 1.36 µM | SNB-19 1.6 µM | MDA-MB-231 1.57 µM | MOLT-4 1.54 µM | SF-268 1.51 µM | SK-OV-3 1.19 µM | LOX IMVI 1.33 µM | NCI-H226 2.37 µM | K562 2.81 µM | OVCAR-3 1.15 µM | UACC-62 1.49 µM | UACC-257 1.58 µM | U-251 1.95 µM | HCT-116 1.4 µM | NCI-H460 1.35 µM
1.51 µM: HCT-15

CCOC(=O)C1CC(O)C(=O)N1C (centres undefined)
> 100 µM: HCT-15
inactive: SN12C > 100 µM | UO-31 > 100 µM | 786-0 > 100 µM | RXF 393 > 100 µM | IGROV-1 > 100 µM | CCRF-CEM > 100 µM | HOP-92 > 100 µM | SR > 100 µM | A549 > 100 µM | BT-549 > 100 µM | NCI-H23 > 100 µM | COLO 205 > 100 µM | OVCAR-5 > 100 µM | TK-10 > 100 µM | HT-29 > 100 µM | SK-MEL-28 > 100 µM | T47D > 100 µM | HL-60 > 100 µM | DU-145 > 100 µM | HCC 2998 > 100 µM | EKVX > 100 µM | PC-3 > 100 µM | OVCAR-4 > 100 µM | SNB-19 > 100 µM | RPMI-8226 > 100 µM | MDA-MB-231 > 100 µM | M14 > 100 µM | MOLT-4 > 100 µM | HOP-62 > 100 µM | SK-OV-3 > 100 µM | LOX IMVI > 100 µM | MDA-N > 100 µM | NCI-H226 > 100 µM | SK-MEL-2 > 100 µM | OVCAR-3 > 100 µM | UACC-62 > 100 µM | UACC-257 > 100 µM | U-251 > 100 µM | HCT-116 > 100 µM | ACHN > 100 µM | CAKI-1 > 100 µM | SK-MEL-5 > 100 µM | SF-295 > 100 µM | SF-539 > 100 µM | MCF7 > 100 µM | MDA-MB-435 > 100 µM
